Laboratory results reported in patent US20030133881A1, “Formulations for the remineralization of teeth” (priority 2001, published 2003).

What was measured:
[1] = system: microflora from primary root carious lesions (PRCL); assay: Ozone effect on microflora from primary root caries ex-vivo; assay type: cell-based; conditions: for Mean ± SE of Total cfu (Log10): After 10 Seconds of Ozone Treatment
Source text: Primary root carious lesions (PRCL) are a major clinical problem. The aim of this study was to establish if ozone could achieve effective microbial killing in PRCL. An ozone producing generator (Purezone Ltd., Ipswich, U.K.) was used in this ex-vivo study assessing the use of ozone on PRCL. In this study, soft PRCL requiring restoration were used as these are the most severe type of lesion found in humans. 20 freshly extracted teeth with PRCL requiring restoration were used. After plaque removal using a hand held standard fine nylon fiber sterile toothbrush with sterile water as a lubricant to cleanse the surface, each tooth was then isolated using sterile cotton wool rolls and dried using a dry sterile cotton wool roll. […] Each sample was weighed and immediately placed in 1 ml of Fastidious Anaerobe Broth (FAB). To each 1 ml of FAB containing a biopsy o carious or ozone treated carious dentine, sterile glass beads were added. They were vortexed for 30 seconds to facilitate the extraction of any micro-organisms from the carious dentine and disperse any aggregates.
The procedure of Example 2 was repeated except that ozonized water was applied to the lesion for 20 seconds.

[2] = system: Streptococcus sobrinus; TH 21; assay: Ozone on S. sobrinus on saliva coated glass beads; conditions: 10 seconds of ozone applied to saliva coated glass beads
Description: In study 2, 40 sterile saliva coated glass beads were put into bijoux bottles with 3 mls of Todd Hewitt broth for control and test groups. S. sobrinus and S. mutans were inoculated and incubated anaerobically overnight. Each glass bead was washed with 2 mls of PBS. Immediately, 10 seconds of ozone was applied to the glass beads in the test groups. Subsequently, each glass bead in the test and control groups was placed in 3 mls of Todd Hewitt broth with six more sterile glass beads and were vortexed for 30 seconds. After decimal dilutions, 100 ml aliquots were spread on blood agar plates supplemented with 5% (V/V) horse blood and placed in an anaerobic chamber at 37° C. for two days. The number of each colony type was counted and calculated.

With `O=[O+][O-]` [ozone] the “percentage of micro-organisms killed” value ([1]; 10 seconds of ozone, PRCL ex-vivo) was “more than 99%”, the “Mean ± SE of Total cfu (Log10)” value ([1]; soft PRCL from extracted teeth) was 3.57±0.37 Log10 and the “Mean ± SE of Total cfu (Log10)” value ([1]; soft PRCL from extracted teeth, listed as Ozone) was 3.57 ± 0.37 Log10. The “Total cfu (log10), mean±SE” value ([1]; after 20 seconds of ozone treatment, soft PRCL from extracted teeth) was 3.77±0.42 log10 and the “colony count (log10), Mean±SE” value [2] was 1.09±0.36 log10.
